The record followed here is patent US20250186490A1, “METHOD OF CHEMICALLY TREATING OR CULTIVATING MACROPHAGES AND THEIR THERAPEUTIC APPLICATIONS IN FIBROTIC DISEASES” (MAPONOS THERAPEUTICS INC., priority 2022, published 2025).

Assay [1] has as its system Bone Marrow-Derived Macrophages (BMDM). The assay is described as follows: MCP-1 ELISA on culture supernatant of MRCi-treated macrophages cultured under hypoxia. In kind it is cell-based, mouse. Particulars: then hypoxia, vs untreated. The protocol: (§1) In this example, macrophages were isolated and cultivated from the source of murine bone marrow. Eight-week-old male C57/BL6 mice (The Jackson Laboratory, ME, USA) were sacrificed by cervical dislocation. The tibia and femur were separated, and the bone marrow was flushed out using ice-cold PBS solution. Bone marrow cells were then resuspended into single-cell suspension and washed with ice-cold PBS. The cells were treated with Red Blood Cell Lysis Buffer (MilliporeSigma, MA, USA). After the treatment, the cell suspension was washed with ice-cold PBS then seeded with a culture medium.
(§2) The culture medium for the BMDM used in this example includes RPMI1640 (Thermo Fisher Scientific, MA, USA) containing 10% heat-inactivated Fetal Bovine Serum (Gemini Bio, CA, USA), supplied with 100 ng/ml of Recombinant Mouse M-CSF Protein (R&D Systems, MN, USA). Fresh medium was supplied on day three and day five post isolation. On day six of the culturing process, 1 μM of Rotenone (MilliporeSigma, MA, USA) in DMSO solution was added into the culturing medium and incubated for 2 hours with the cells. Then the culture was replaced with fresh medium and was placed into a hypoxia culture chamber with 1% oxygen supply and 5% carbon dioxide at 37° C. On day seven, the cells were ready for downstream treatments. In the untreated group, only vehicle (DMSO) was added as the control. In addition to Rotenone, the following mitochondrial respiratory chain inhibitors (MRCi) were also tested following the same culturing process: Deguclin (10 μM), Piericidin A (0.1 μM), and Capsaicin (5 μM).
To evaluate the enhanced anti-fibrosis ability of the chemically-treated BMDM, ELISA assays were applied using commercially purchased testing kits. In this example, a Mouse MCP-1 ELISA Kit and a Mouse IP-10 ELISA Kit (CXCL10) (both from Abcam plc, Cambridge, UK) were used. Tests using both kits were performed according to the instructions provided by Abcam. […]
(In general: ELISA stands for enzyme-linked immunosorbent assay.)

Assay [2] shares this test system. The assay is described as follows: CXCL10 (IP-10) ELISA on culture supernatant of MRCi-treated macrophages cultured under hypoxia. In kind it is cell-based, mouse. To be noted: then hypoxia (1% oxygen), vs untreated. The protocol:
as §1
as §2, with “In addition to Rotenone, the following mitochondrial respiratory chain inhibitors (MRCi) were also tested following the same culturing process: Deguclin (10 μM), Piericidin A (0.1 μM), and Capsaicin (5 μM).” left out

For `C/C=C(\C)[C@H](O)[C@H](C)/C=C(C)/C=C/C/C(C)=C/Cc1nc(OC)c(OC)c(O)c1C` [Piericidin A], the MCP-1 level result in assay [1] (BMDM treated with 0.1 μM Piericidin A) is given as “reduce the MCP-1 level”.
`COc1cc(CNC(=O)CCCC/C=C/C(C)C)ccc1O` [capsaicin, Capsaicin]: the MCP-1 level result in assay [1] (BMDM treated with 5 μM capsaicin) is recorded as “reduce the MCP-1 level”.
For the molecule `COc1cc2c(cc1OC)[C@@H]1C(=O)c3ccc4c(c3O[C@@H]1CO2)C=CC(C)(C)O4` [deguelin, Deguelin], the “CXCL 10 level” value in assay [2] (BMDM treated with 10 μM deguelin for 2 hours) is “increased CXCL 10 level”.
Turning to `C=C(C)[C@H]1Cc2c(ccc3c2O[C@@H]2COc4cc(OC)c(OC)cc4[C@@H]2C3=O)O1` [rotenone, Rotenone], in assay [1] (BMDM treated with 1 μM rotenone), the MCP-1 level result is on record as “reduce the MCP-1 level”. Besides, the “CXCL 10 level” value in assay [2] (BMDM treated with 1 μM rotenone for 2 hours) is given as “increased CXCL 10 level”.
